Results from the NIST ThermoML archive (doi:10.1007/s10765-010-0768-y).
± gives the expanded uncertainty stated by the source.

Conditions: 288.15 K; 101 kPa; Liquid; Pycnometric method

Going from Cc1ccccc1C [1,2-dimethylbenzene] to Cc1ccc(C)cc1 [1,4-dimethylbenzene], the mass density falls from 884.09 ± 0.22 kg/m3 to 865.52 ± 0.22 kg/m3.

First: C=CC(=O)OCCCC [butyl 2-propenoate]
Second: Cc1cc(C)cc(C)c1 [1,3,5-trimethylbenzene]
The mass density of the first is higher: 903.6 ± 0.27 kg/m3 for the first, 869.28 ± 0.24 kg/m3 for the second.

Same assay, conditions: 293.15 K; 101 kPa; Liquid; Pycnometric method

Going from Cc1ccccc1 [toluene] to Cc1cccc(C)c1 [1,3-dimethylbenzene], the mass density falls from 867.08 ± 0.2 kg/m3 to 864.31 ± 0.21 kg/m3.

Going from c1ccccc1 [benzene] to Cc1ccccc1C [1,2-dimethylbenzene], the mass density rises from 878.95 ± 0.2 kg/m3 to 879.83 ± 0.21 kg/m3.

Going from C=CC(=O)OCCCC [butyl 2-propenoate] to Cc1ccc(C)cc1 [1,4-dimethylbenzene], the mass density falls from 898.85 ± 0.26 kg/m3 to 861.17 ± 0.2 kg/m3.

Compound Cc1cc(C)cc(C)c1 [1,3,5-trimethylbenzene] has a mass density of 865.37 ± 0.23 kg/m3.

Same assay, conditions: 298.15 K; 101 kPa; Liquid; Pycnometric method

Going from Cc1ccccc1 [toluene] to Cc1cccc(C)c1 [1,3-dimethylbenzene], the mass density falls from 862.36 ± 0.21 kg/m3 to 860.02 ± 0.22 kg/m3.

First: c1ccccc1 [benzene]
Second: Cc1ccccc1C [1,2-dimethylbenzene]
The mass density of the first is lower: 873.61 ± 0.21 kg/m3 for the first, 875.57 ± 0.22 kg/m3 for the second.

Compared with C=CC(=O)OCCCC [butyl 2-propenoate], Cc1ccc(C)cc1 [1,4-dimethylbenzene] is lower in mass density: 894.1 ± 0.27 kg/m3 for the first, 856.82 ± 0.21 kg/m3 for the second.

Cc1cc(C)cc(C)c1 [1,3,5-trimethylbenzene] gave a mass density of 861.45 ± 0.24 kg/m3.

Same assay, conditions: 303.15 K; 101 kPa; Liquid; Pycnometric method

First: Cc1ccccc1 [toluene]
Second: Cc1cccc(C)c1 [1,3-dimethylbenzene]
The mass density of the first is higher: 857.64 ± 0.22 kg/m3 for the first, 855.74 ± 0.23 kg/m3 for the second.

First: c1ccccc1 [benzene]
Second: Cc1ccccc1C [1,2-dimethylbenzene]
The mass density of the first is lower: 868.26 ± 0.22 kg/m3 for the first, 871.31 ± 0.23 kg/m3 for the second.

First: C=CC(=O)OCCCC [butyl 2-propenoate]
Second: Cc1ccc(C)cc1 [1,4-dimethylbenzene]
The mass density of the first is higher: 889.35 ± 0.28 kg/m3 for the first, 852.47 ± 0.22 kg/m3 for the second.

Cc1cc(C)cc(C)c1 [1,3,5-trimethylbenzene] showed a mass density of 857.54 ± 0.25 kg/m3.

Same assay, conditions: 308.15 K; 101 kPa; Liquid; Pycnometric method

First: Cc1ccccc1 [toluene]
Second: Cc1cccc(C)c1 [1,3-dimethylbenzene]
The mass density of the first is higher: 852.93 ± 0.23 kg/m3 for the first, 851.45 ± 0.24 kg/m3 for the second.

First: c1ccccc1 [benzene]
Second: Cc1ccccc1C [1,2-dimethylbenzene]
The mass density of the first is lower: 862.9 ± 0.23 kg/m3 for the first, 867.05 ± 0.24 kg/m3 for the second.

First: C=CC(=O)OCCCC [butyl 2-propenoate]
Second: Cc1ccc(C)cc1 [1,4-dimethylbenzene]
The mass density of the first is higher: 884.6 ± 0.29 kg/m3 for the first, 848.12 ± 0.23 kg/m3 for the second.

With Cc1cc(C)cc(C)c1 [1,3,5-trimethylbenzene] the mass density was 853.63 ± 0.26 kg/m3.

Same assay, conditions: 313.15 K; 101 kPa; Liquid; Pycnometric method

Going from Cc1ccccc1 [toluene] to Cc1cccc(C)c1 [1,3-dimethylbenzene], the mass density falls from 848.21 ± 0.24 kg/m3 to 847.17 ± 0.25 kg/m3.

Going from c1ccccc1 [benzene] to Cc1ccccc1C [1,2-dimethylbenzene], the mass density rises from 857.56 ± 0.24 kg/m3 to 862.79 ± 0.25 kg/m3.

Going from C=CC(=O)OCCCC [butyl 2-propenoate] to Cc1ccc(C)cc1 [1,4-dimethylbenzene], the mass density falls from 879.85 ± 0.3 kg/m3 to 843.77 ± 0.24 kg/m3.

Cc1cc(C)cc(C)c1 [1,3,5-trimethylbenzene] showed a mass density of 849.71 ± 0.27 kg/m3.

Same assay, conditions: 318.15 K; 101 kPa; Liquid; Pycnometric method

Compared with Cc1ccccc1 [toluene], Cc1cccc(C)c1 [1,3-dimethylbenzene] is lower in mass density: 843.49 ± 0.25 kg/m3 for the first, 842.88 ± 0.26 kg/m3 for the second.

Compared with c1ccccc1 [benzene], Cc1ccccc1C [1,2-dimethylbenzene] is higher in mass density: 852.23 ± 0.25 kg/m3 for the first, 858.53 ± 0.26 kg/m3 for the second.

First: C=CC(=O)OCCCC [butyl 2-propenoate]
Second: Cc1ccc(C)cc1 [1,4-dimethylbenzene]
The mass density of the first is higher: 875.1 ± 0.31 kg/m3 for the first, 839.42 ± 0.25 kg/m3 for the second.

With Cc1cc(C)cc(C)c1 [1,3,5-trimethylbenzene] the mass density was 845.8 ± 0.28 kg/m3.
